# Experimental data taken from patent US20110039770A1, “INHIBITORS OF PROTEIN KINASE C ISOFORMS AND USES THEREOF” (PHARMAGAP INC., priority 2005, published 2011).
# Experiments:
# Assay in all cases: Tetracycline-induced expression of TIM 17 in IMR32 cells, PKC isoform level
# Assay type in all cases: cell-based
# [1] = target: PKC delta (Homo sapiens, UniProt Q05655); parameters: endogenous in cells; settings: fluorescence imaging; confirmed by Western blot
# Description: (§1) The specificity and efficacy of compound TIM 17 (see Table 28) was tested intracellularly on 3 PKC isoforms (α, δ and ε), which are the main isoforms expressed in the IMR32 neuroblastoma cell lines and neuroblastoma biopsies.
# (§2) The synthetic TIM 17 gene was subcloned into the pREx-DEST31(7559) expression vector and transfected into IMR32 neuroblastoma cells using standard techniques. Transcription of the TIM 17 gene is under the control of a tetracycline promoter that allows gene expression to be switched on and off. Expression of the TIM 17 gene was elicited by treatment with 150 ng/ml of tetracycline for 48 h.
# (§3) The expression level of PKC-α, δ and ε was also assessed by fluorescence imaging using anti-PKC antibodies from SantaCruz and secondary Alexa 488 conjugate from Invitrogen. Microscopic images were obtained from a Coulter microscope equipped with epifluorescence and the images analyzed with ImagePro+ software with the assistance of DAGE-MTI camera. The same gating was maintained constant for all images. […] The above results were also confirmed by Western blot.
# [2] = target: T1, PKC epsilon (Homo sapiens, UniProt Q02156); parameters: endogenous in cells; settings: fluorescence imaging; confirmed by Western blot
# T1 sequence (Q02156 1-737): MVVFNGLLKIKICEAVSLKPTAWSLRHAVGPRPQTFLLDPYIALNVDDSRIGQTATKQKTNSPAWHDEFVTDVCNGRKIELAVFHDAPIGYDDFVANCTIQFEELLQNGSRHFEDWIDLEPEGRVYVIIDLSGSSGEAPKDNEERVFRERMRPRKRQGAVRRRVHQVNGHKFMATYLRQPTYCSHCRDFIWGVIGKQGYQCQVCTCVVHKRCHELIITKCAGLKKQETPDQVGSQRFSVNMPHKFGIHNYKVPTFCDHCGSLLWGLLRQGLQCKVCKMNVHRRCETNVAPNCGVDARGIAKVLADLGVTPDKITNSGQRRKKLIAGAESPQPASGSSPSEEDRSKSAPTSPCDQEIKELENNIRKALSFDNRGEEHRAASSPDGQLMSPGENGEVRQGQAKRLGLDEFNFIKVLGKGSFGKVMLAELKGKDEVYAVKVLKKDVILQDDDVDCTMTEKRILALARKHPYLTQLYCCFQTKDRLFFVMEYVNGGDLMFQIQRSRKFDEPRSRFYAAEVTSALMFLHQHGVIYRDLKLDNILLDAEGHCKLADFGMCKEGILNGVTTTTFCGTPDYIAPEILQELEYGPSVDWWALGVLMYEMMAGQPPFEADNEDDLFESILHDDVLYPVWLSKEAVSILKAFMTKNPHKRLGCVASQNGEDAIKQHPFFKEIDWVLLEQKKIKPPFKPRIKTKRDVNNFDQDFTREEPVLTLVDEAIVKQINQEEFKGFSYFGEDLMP
# Description: as §1, §2, §3
# [3] = target: PKC-α (Homo sapiens, UniProt P17252); parameters: endogenous PKC-α in (A) untreated human neuroblastoma (IMR-32) cells; endogenous in cells; host or cells: IMR-32 human neuroblastoma cells; settings: TIM 17 transfected cells + 150 ng/ml tetracycline 48 h; flow cytometry
# Description: as §1, §2
# The data were acquired from 20,000 to 50,000 individual cells. The graph scales report the number of events measured at the peak of fluorescence while the percentage of cells positive to the specific anti-PKCalpha antibody is shown on the graphs together with the relative intensity (see number provided below the percentage). The relative intensity correlates to the mean intracellular level of PKCalpha in the cell population.
# The expression level of PKC-α, δ and ε was also assessed by fluorescence imaging using anti-PKC antibodies from SantaCruz and secondary Alexa 488 conjugate from Invitrogen. Microscopic images were obtained from a Coulter microscope equipped with epifluorescence and the images analyzed with ImagePro+ software with the assistance of DAGE-MTI camera. […]
# Chain of PKC delta (Q05655 whole entry, canonical isoform): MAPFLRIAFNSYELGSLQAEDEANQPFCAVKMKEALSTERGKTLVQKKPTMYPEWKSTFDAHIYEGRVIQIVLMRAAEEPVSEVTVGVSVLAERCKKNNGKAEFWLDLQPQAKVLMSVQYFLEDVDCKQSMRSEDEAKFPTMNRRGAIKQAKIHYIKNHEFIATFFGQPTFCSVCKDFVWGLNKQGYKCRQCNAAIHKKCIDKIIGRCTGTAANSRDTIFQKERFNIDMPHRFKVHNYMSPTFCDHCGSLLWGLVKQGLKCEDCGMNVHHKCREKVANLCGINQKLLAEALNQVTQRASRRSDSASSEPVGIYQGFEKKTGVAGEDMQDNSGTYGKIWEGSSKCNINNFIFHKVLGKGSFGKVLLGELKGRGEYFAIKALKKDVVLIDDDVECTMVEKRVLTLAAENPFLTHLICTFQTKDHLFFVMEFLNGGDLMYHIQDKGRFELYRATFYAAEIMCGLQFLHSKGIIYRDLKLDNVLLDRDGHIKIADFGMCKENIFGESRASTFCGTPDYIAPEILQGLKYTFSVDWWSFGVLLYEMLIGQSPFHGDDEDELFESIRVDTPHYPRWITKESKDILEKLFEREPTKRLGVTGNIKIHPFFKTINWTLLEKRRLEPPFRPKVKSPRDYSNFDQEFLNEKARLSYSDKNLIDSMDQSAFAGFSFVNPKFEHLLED
substance,measurement,setting,value
FRRKFRL—(G)7—KDAQNLIGISI [TIM 17],intracellular level of PKC delta,[1],"did not, however, alter the intracellular level"
same,intracellular level of PKC epsilon,[2],"did not, however, alter the intracellular level"
same,percentage of cells expressing similar levels of PKCalpha as controls,[3],30%
same,percentage of population with dramatic decrease in PKC alpha cellular content,[3],69.8%
